{"source": "patent US20240158379A1", "about": "“NOVEL BENZOFURAN, BENZOTHIOPHENE, AND INDOLE ANALOGS THAT INHIBIT THE FORMATION OF TAU OLIGOMERS AND THEIR METHOD OF USE” (OLIGOMERIX INC., priority 2016, published 2024)"}
{"molecular_target": "recombinant human tau 4R2N (Homo sapiens (Human), UniProt P10636)", "sequence (P10636 other isoform, or with tags, fused parts or gaps)": "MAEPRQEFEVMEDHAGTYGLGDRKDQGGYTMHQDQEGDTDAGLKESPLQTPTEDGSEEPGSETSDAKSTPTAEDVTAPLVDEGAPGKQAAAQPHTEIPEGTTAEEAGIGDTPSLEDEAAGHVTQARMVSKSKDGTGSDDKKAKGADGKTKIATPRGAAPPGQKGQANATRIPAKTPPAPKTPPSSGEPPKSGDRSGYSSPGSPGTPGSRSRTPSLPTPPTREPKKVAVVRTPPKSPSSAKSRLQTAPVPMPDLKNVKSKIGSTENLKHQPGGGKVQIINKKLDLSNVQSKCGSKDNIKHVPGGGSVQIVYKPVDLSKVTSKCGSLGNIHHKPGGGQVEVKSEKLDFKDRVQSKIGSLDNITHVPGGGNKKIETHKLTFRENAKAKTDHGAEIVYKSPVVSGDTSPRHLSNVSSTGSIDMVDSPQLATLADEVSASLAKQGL", "assay": "AlphaLisa Assay (ALA), primary screen for inhibition of tau oligomer formation", "format": "biochemical", "conditions": "tau target 300 nM, Tris-HCl pH 7.4, 4 hours room temperature, compound 0.098 uM-50 uM", "text": "Bacterial recombinant human tau 4R2N (the largest isoform of tau in the central nervous system, 441 amino acids in length, Seq ID 1) constructs with either 6×-His or StrepII N-terminal epitope tags were purified from bacterial lysate using denaturing conditions to prepare tau in its monomeric form.\nALA Assay: AlphaLisa Assay (ALA) was used as a primary screen for identifying compounds that inhibit tau oligomer formation. It is a bead based assay that only gives signal when the beads are in close proximity to each other. When the tau monomer (target) is incubated it forms higher order aggregates (dimer, trimer, tetramer, etc) so that when the donor and acceptor beads bind to the epitope tags of tau they are in close proximity and generate signal.\nTau target (equal mixture of each construct at 300 nM) was prepared in buffer (Tris-HCl pH 7.4) and was incubated in 96-well plates at room temperature for 4 hours with vehicle control (DMSO) and a dose range of a compound of the disclosure (0.098 uM-50 uM). AlphaLisa acceptor beads & donor beads with ligands to the epitope tags (Perkin Elmer) were diluted (final 20 ug/mL per bead) in bead buffer (25 mM HEPES pH 7.4, 100 mM NaCl, 0.1% Tween-20), added to the wells and incubated 1 hour at room temperature. The positive control (non-incubated target) & blank (no tau) were prepared and mixed with beads in bead buffer and the plate was read immediately using the EnVision plate reader (Perkin Elmer).", "units": {"IC50": "µM"}}
{"compound": "CC(=O)CCc1oc2ccc(-c3cccs3)cc2c1-c1ccc(C)o1", "note": "[Example 8, 4-(3-(5-Methylfuran-2-yl)-5-(thiophen-2-yl)benzofuran-2-yl)butan-2-one]", "IC50": 1.31}
{"compound": "CC(=O)CCc1oc2ccc(Br)cc2c1CCC(C)C", "note": "[Example 9, 4-[5-Bromo-3-(3-methyl-butyl)-benzofuran-2-yl]-butan-2-one]", "IC50": "> 10"}
{"compound": "Cc1ccc(-c2c(CCC(=O)O)oc3ccc(Br)cc23)o1", "note": "[Example 12, 3-[5-Bromo-3-(5-methyl-furan-2-yl)-benzofuran-2-yl]-propionic acid]", "IC50": 6.09}
{"compound": "Cc1ccc(-c2c(CCC(=O)N3CCC(O)CC3)oc3ccc(Br)cc23)o1", "note": "[Example 13, 3-[5-Bromo-3-(5-methyl-furan-2-yl)-benzofuran-2-yl]-1-(4-hydroxy-piperidin-1-yl)-propan-1-one]", "IC50": 5.78}
{"compound": "CC(=O)CCc1oc2ccc(-c3ccncc3)cc2c1-c1ccc(Cl)s1", "note": "[Example 18, 4-(3-(5-Chlorothiophen-2-yl)-5-(pyridin-4-yl)benzofuran-2-yl)butan-2-one]", "IC50": 7.67}
{"compound": "COc1cc(-c2ccc3oc(CCC(C)=O)c(-c4ccc(Cl)s4)c3c2)ccn1", "note": "[Example 19, 4-(3-(5-chlorothiophen-2-yl)-5-(2-methoxypyridin-4-yl)benzofuran-2-yl)butan-2-one]", "IC50": 20.8}
{"compound": "CC(=O)CCc1oc2ccc(-c3ccc(Cl)nc3)cc2c1-c1ccc(Cl)s1", "note": "[Example 20, 4-(5-(6-Chloropyridin-3-yl)-3-(5-chlorothiophen-2-yl)benzofuran-2-yl)butan-2-one]", "IC50": 15.4}
{"compound": "CC(=O)CCc1oc2cc(Br)ccc2c1-c1ccc(C)o1", "note": "[Example 21, 4-(6-Bromo-3-(5-methylfuran-2-yl)benzofuran-2-yl)butan-2-one]", "IC50": 1.17}
{"compound": "CC(=O)CCc1oc2cc(-c3ccncc3)ccc2c1-c1ccc(C)o1", "note": "[Example 22, 4-(3-(5-Methylfuran-2-yl)-6-(pyridin-4-yl)benzofuran-2-yl)butan-2-one]", "IC50": 3.42}
{"compound": "CC(=O)CCc1oc2ccc(Br)cc2c1CCc1ccc(C)cc1", "note": "[Example 26, 4-(5-Bromo-3-(2-p-tolylethyl)benzofuran-2-yl)butan-2-one]", "IC50": "> 10"}
{"compound": "COc1ccc(-c2ccc3c(-c4ccc(C)o4)c(CCC(C)=O)oc3c2)cn1", "note": "[Example 28, 4-(6-(6-Methoxypyridin-3-yl)-3-(5-methylfuran-2-yl)benzofuran-2-yl)butan-2-one]", "IC50": 2.48}
